Experimental data published in ChEMBL document CHEMBL1201862, “PubChem BioAssay data set” (2004).
Calls of active or inactive are those of the source.

Assays:
Assay type in all cases: functional
[1] = target: T1, High affinity choline transporter 1 (Homo sapiens, UniProt Q9GZV3); test: human choline transporter blockers, potency – cell-based, 10-point CRC, membrane potential dye, dose response (AID 588401);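 further: membrane potential dye fluorescence of choline-evoked depolarization via CHT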
T1 sequence (Q9GZV3 whole entry): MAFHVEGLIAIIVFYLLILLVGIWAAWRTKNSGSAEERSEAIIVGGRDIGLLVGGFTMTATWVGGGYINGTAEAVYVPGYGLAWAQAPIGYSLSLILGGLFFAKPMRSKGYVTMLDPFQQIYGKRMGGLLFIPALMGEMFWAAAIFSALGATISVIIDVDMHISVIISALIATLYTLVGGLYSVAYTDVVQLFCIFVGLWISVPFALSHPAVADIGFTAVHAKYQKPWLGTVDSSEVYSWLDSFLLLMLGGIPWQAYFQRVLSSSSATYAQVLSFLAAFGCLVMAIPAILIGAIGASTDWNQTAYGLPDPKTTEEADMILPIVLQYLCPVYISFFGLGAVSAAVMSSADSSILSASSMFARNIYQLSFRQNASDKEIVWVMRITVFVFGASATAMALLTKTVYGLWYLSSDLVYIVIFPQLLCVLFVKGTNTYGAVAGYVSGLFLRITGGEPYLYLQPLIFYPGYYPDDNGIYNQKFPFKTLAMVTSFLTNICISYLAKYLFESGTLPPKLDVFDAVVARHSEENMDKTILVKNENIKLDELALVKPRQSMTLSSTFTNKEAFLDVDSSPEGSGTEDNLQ

[2] = target: T1, High affinity choline transporter 1; test: human choline transporter blockers, potency – cell-based, 5-point CRC, membrane potential dye, dose response (AID 504840)
[3] = THP-1 cell cytotoxicity, cytotoxicity control, set 5 (AID 588443)
[4] = target: Multidrug resistance protein CDR2 (Candida albicans (strain SC5314 / ATCC MYA-2876) (Yeast), UniProt P78595); test: inhibition of Nile Red efflux via Candida CDR2 – S. cerevisiae AD1-8u, singleplex, Cherry Pick1 hits, dose response (AID 588604)
[5] = target: Melanin-concentrating hormone receptor 1 (Homo sapiens, UniProt Q99705); test: Late-stage fluorescence-based counterscreen for antagonists of the G-protein coupled receptor 7 (GPR7): cell-based dose response assay to identify antagonists of the melanin-concentrating hormone receptor 1 (MCHR1) Set 6.
[6] = target: T2, Neuropeptides B/W receptor type 1 (Homo sapiens, UniProt P48145); test: human NPBW1 receptor blockade, IC50 – cell-based, fluorescence, dose response, set 6, late-stage follow-up (AID 588583)
T2 sequence (P48145 whole entry): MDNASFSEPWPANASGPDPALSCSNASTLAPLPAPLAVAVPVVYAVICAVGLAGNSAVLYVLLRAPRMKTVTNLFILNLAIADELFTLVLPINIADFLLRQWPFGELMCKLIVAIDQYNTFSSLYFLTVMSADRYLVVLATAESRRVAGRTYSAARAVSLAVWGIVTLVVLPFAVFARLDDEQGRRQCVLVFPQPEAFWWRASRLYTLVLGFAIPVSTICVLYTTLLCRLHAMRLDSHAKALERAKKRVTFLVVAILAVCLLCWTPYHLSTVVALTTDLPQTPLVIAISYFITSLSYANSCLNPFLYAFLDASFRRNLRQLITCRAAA

Melanin-concentrating hormone receptor 1, sequence (Q99705 whole entry): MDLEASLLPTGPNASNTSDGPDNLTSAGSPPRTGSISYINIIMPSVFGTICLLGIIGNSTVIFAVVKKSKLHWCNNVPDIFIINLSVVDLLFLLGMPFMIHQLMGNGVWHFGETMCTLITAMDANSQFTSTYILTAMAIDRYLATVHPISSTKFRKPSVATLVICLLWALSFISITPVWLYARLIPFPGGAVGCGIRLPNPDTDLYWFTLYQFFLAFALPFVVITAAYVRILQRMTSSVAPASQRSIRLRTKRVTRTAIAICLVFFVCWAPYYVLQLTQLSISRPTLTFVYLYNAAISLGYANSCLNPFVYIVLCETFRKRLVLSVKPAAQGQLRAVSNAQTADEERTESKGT
Multidrug resistance protein CDR2, sequence (P78595 whole entry): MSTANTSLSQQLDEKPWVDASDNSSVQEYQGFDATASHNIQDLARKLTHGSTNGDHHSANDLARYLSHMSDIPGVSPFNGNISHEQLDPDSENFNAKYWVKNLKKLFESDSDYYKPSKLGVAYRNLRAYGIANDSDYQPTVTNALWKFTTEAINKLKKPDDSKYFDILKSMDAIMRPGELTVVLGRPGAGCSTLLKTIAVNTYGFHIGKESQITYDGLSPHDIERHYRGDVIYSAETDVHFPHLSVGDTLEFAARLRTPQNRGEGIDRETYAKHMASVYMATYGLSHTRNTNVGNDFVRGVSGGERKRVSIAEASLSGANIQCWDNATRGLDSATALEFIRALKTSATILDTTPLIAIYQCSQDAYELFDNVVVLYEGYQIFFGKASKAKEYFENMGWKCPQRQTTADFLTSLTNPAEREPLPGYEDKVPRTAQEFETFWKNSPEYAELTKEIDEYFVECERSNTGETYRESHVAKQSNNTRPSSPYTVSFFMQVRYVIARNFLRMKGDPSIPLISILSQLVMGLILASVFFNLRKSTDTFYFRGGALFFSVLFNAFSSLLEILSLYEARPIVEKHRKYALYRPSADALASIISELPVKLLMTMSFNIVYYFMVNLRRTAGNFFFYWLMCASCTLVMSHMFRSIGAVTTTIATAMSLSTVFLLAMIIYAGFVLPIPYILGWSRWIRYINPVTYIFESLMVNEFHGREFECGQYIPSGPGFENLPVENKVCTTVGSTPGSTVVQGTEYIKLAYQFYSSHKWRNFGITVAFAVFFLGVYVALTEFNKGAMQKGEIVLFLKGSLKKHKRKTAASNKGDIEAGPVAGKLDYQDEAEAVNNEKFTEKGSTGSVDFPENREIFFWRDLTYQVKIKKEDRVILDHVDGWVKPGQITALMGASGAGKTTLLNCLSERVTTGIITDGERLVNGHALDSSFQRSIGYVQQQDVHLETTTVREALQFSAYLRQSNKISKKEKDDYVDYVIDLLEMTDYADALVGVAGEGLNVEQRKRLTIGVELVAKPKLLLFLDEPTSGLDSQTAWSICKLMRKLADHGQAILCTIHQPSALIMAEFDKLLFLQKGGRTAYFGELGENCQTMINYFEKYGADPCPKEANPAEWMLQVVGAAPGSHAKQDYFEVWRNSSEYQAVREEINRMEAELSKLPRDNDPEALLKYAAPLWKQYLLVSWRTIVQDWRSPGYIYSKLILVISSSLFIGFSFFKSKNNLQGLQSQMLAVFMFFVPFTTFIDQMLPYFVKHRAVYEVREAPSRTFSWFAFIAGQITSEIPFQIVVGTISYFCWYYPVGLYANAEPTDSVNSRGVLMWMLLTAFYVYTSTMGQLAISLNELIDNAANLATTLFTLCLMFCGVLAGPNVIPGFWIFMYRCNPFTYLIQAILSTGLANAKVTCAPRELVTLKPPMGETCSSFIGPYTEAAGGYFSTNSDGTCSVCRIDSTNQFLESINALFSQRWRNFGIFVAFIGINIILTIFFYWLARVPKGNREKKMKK

With `CC(C)CC(=O)N=c1nc(S)ss1` the IC50 [1] was 3.98 µM (active) and the IC50 [2] was 3.02 µM (active).
For `CC(C)OC(=O)CSc1ncnc2c1cnn2-c1ccccc1`, the CC50 [3] was > 100 µM (active).
For `COc1cccc(-c2sc3ccc(OC)cc3c2-c2ccc(OCCN3CCCC3)cc2)c1`, the EC50 [4] was 10.2 µM (active).
For `N#CC(c1ccc(F)cc1)c1c(Cl)cnn(Cc2cccc3ccccc23)c1=O` (stereo unspecified), the IC50 [5] was 0.154 µM (active) and the IC50 [6] was 0.154 µM (active).
